Source: patent US5093480A, “Azoxy compounds” (Kowa Company, Ltd., priority 1988, dated 1992)
≈ marks a conversion by molar mass, not a printed value.

Experiments:
[1] = test system: Candida albicans; experiment: Minimum inhibitory concentration, agar dilution method, Candida albicans; assay type: cell-based; conditions: Sabouraud's dextrose medium; for MIC: Candida albicans
Procedure: (§1) The minimum inhibitory concentrations (μg/ml), relative to test fungi, of some of the typical compounds in this invention produced in Examples to be described later were measured, and the results are tabulated below.
(§2) *The minimum inhibitory concentrations were measured by an agar dilution
(§3) method using a Sabouraud's dextrose medium in accordance with a standard
(§4) method of Nippon Kagaku Ryoho Gakkai (Chemical Therapy Academy).

[2] = test system: Cystococcus neoformans; experiment: Minimum inhibitory concentration, agar dilution method, Cystococcus neoformans; assay type: cell-based; conditions: Sabouraud's dextrose medium
Procedure: as §1, §2, §3, §4

[3] = test system: Trichophyton mentagrophytes; experiment: Minimum inhibitory concentration, agar dilution method, Trichophyton mentagrophytes; assay type: cell-based; conditions: Sabouraud's dextrose medium; for MIC: Trichophyton mentagrophytes
Procedure: as §1, §2, §3, §4

[4] = test system: Trichophyton rubrus; experiment: Minimum inhibitory concentration, agar dilution method, Trichophyton rubrus; assay type: cell-based; conditions: Sabouraud's dextrose medium; for MIC: Trichophyton
Procedure: as §1, §2, §3, §4

[5] = Acute toxicity to mice; conditions: mouse, in vivo, intravenous administration
Procedure: The compound in this invention is low in toxicity. For example, acute toxicities LD50 to mice of the compounds in Examples 1 and 4 to be described later are both more than 100 mg/kg (intravenous administration).

[6] = Stability in serum (thin layer chromatography and biological verification using Candida albicans); assay type: in vitro ADME; conditions: left to stand in serum at 37° C. for 4 hours; TLC and biological verification using Candida albicans

| Molecule | Minimum inhibitory concentration, Candida albicans [1] | Minimum inhibitory concentration, Cystococcus neoformans [2] | Minimum inhibitory concentration, Trichophyton mentagrophytes [3] | Minimum inhibitory concentration, Trichophyton rubrus [4] | MIC [1] | MIC [2] | MIC [3] | MIC [4] | LD50 [5] | decomposition in serum [6] |
| --- | --- | --- | --- | --- | --- | --- | --- | --- | --- | --- |
| 2-(2,4-dichlorodiphenylacetylhydrazono)-2-dioxo-KA-7367A [Example 79] | 1.6 µg/mL | 6.25 µg/mL | 3.1 µg/mL | 1.6 µg/mL | – | – | – | – | – | – |
| 2-thenoylhydrazono-2-deoxo-KA-7367A [Example 68] | 3.2 µg/mL | 6.25 µg/mL | 6.25 µg/mL | 6.25 µg/mL | – | – | – | – | – | – |
| CCCC/C=C/[N+]([O-])=NC(C)C(C)=NO (stereo not shown) [Example 1, 2-hydroxyimino-2-deoxo-KA-7367A] | – | – | – | – | 12.5 µg/mL (≈ 58.6 µM) | 25 µg/mL (≈ 117 µM) | 12.5 µg/mL (≈ 58.6 µM) | 3.1 µg/mL (≈ 14.5 µM) | > 100 mg/kg | – |
| CCCC/C=C/[N+]([O-])=NC(C)C(C)=NOCCOCC (stereo not shown) [Example 3, 2-(2-ethoxy-ethoxyimino)-2-dioxo-KA-7367A] | – | – | – | – | 25 µg/mL (≈ 87.6 µM) | 50 µg/mL (≈ 175 µM) | 25 µg/mL (≈ 87.6 µM) | 6.25 µg/mL (≈ 21.9 µM) | – | – |
| CCCC/C=C/[N+]([O-])=NC(C)C(C)=NOCC(=O)O (stereo not shown) [Example 4, 2-carboxymethoxyimino-2-deoxo-KA-7367A] | – | – | – | – | 12.5 µg/mL (≈ 46.1 µM) | 25 µg/mL (≈ 92.1 µM) | 12.5 µg/mL (≈ 46.1 µM) | 3.1 µg/mL (≈ 11.4 µM) | > 100 mg/kg | – |
| CCCC/C=C/[N+]([O-])=NC(C)C(C)=NOC(C)(C)C(=O)O (stereo not shown) [Example 5, 2-(1-carboxy-1-ethylmethoxyimino)-2-deoxo-KA-7367A] | – | – | – | – | 12.5 µg/mL (≈ 41.8 µM) | 25 µg/mL (≈ 83.5 µM) | 12.5 µg/mL (≈ 41.8 µM) | 3.1 µg/mL (≈ 10.4 µM) | – | – |
| CCCC/C=C/[N+]([O-])=NC(C)C(C)=NOC(C)=O (stereo not shown) [Example 24, 2-acetoxyimino-2-deoxo-KA-7367A] | – | – | – | – | 25 µg/mL (≈ 97.9 µM) | 50 µg/mL (≈ 196 µM) | 12.5 µg/mL (≈ 49 µM) | 6.25 µg/mL (≈ 24.5 µM) | – | – |
| CCCC/C=C/[N+]([O-])=NC(C)C(C)=NOC(=O)c1ccccc1 (stereo not shown) [Example 25, 2-benzoyloxyimino-2-deoxo-KA-7367A] | – | – | – | – | 50 µg/mL (≈ 158 µM) | 50 µg/mL (≈ 158 µM) | 12.5 µg/mL (≈ 39.4 µM) | 3.1 µg/mL (≈ 9.77 µM) | – | – |
| CCCC/C=C/[N+]([O-])=NC(C)C(C)=NOC(=O)c1ccc(Cl)cc1 (stereo not shown) [Example 27, 2-(p-chlorobenzoyloxyimino)-2-deoxo-KA-7367A] | – | – | – | – | 100 µg/mL (≈ 284 µM) | 100 µg/mL (≈ 284 µM) | 12.5 µg/mL (≈ 35.5 µM) | 6.25 µg/mL (≈ 17.8 µM) | – | – |
| CCCC/C=C/[N+]([O-])=NC(C)C(C)=NNC(N)=O (stereo not shown) [Example 34, 2-semicarbazono-2-deoxo-KA-7367A] | – | – | – | – | 3.1 µg/mL (≈ 12.1 µM) | 3.1 µg/mL (≈ 12.1 µM) | 3.1 µg/mL (≈ 12.1 µM) | 1.6 µg/mL (≈ 6.27 µM) | – | – |
| CCCC/C=C/[N+]([O-])=NC(C)C(C)=NNC(N)=S (stereo not shown) [Example 35, 2-thiosemicarbazono-2-deoxo-KA-7367A] | – | – | – | – | 3.1 µg/mL (≈ 11.4 µM) | 6.25 µg/mL (≈ 23 µM) | 6.25 µg/mL (≈ 23 µM) | 3.1 µg/mL (≈ 11.4 µM) | – | – |
| CCCC/C=C/[N+]([O-])=NC(C)C(C)=NNC(C)=O (stereo not shown) [Example 43, 2-acetylhydrazono-2-deoxo-KA-7367A] | – | – | – | – | 1.6 µg/mL (≈ 6.29 µM) | 3.1 µg/mL (≈ 12.2 µM) | 6.25 µg/mL (≈ 24.6 µM) | 3.1 µg/mL (≈ 12.2 µM) | – | – |
| CCCC/C=C/[N+]([O-])=NC(C)C(C)=NNC(=O)Cn1ccnc1 (stereo not shown) [Example 47, 2-(1-imidazolylacetylhydrazono)-2-deoxo-KA-7367A] | – | – | – | – | 6.25 µg/mL (≈ 19.5 µM) | 50 µg/mL (≈ 156 µM) | 25 µg/mL (≈ 78 µM) | 12.5 µg/mL (≈ 39 µM) | – | – |
| CCCC/C=C/[N+]([O-])=NC(C)C(C)=NNC(=O)Cc1cccnc1 (stereo not shown) [Example 48, 2-(3-pyridylacetylhydrazono)-2-deoxo-KA-7367A] | – | – | – | – | 1.6 µg/mL (≈ 4.83 µM) | 6.25 µg/mL (≈ 18.9 µM) | 3.1 µg/mL (≈ 9.35 µM) | 1.6 µg/mL (≈ 4.83 µM) | – | – |
| CCCC/C=C/[N+]([O-])=NC(C)C(C)=NNC(=O)Cc1ccc(Cl)cc1Cl (stereo not shown) [Example 49, 2-(2,4-dichlorophenylacetylhydrzono)-2-deoxo-KA-7367A] | – | – | – | – | 1.6 µg/mL (≈ 4.01 µM) | 6.25 µg/mL (≈ 15.7 µM) | 3.1 µg/mL (≈ 7.76 µM) | 1.6 µg/mL (≈ 4.01 µM) | – | – |
| CCCC/C=C/[N+]([O-])=NC(C)C(C)=NNC(=O)Cc1cccc2ccccc12 (stereo not drawn) [Example 52, 2-(alpha-naphthylacetylhydrazono)-2-deoxo-KA-7367A] | – | – | – | – | 3.1 µg/mL (≈ 8.15 µM) | 12.5 µg/mL (≈ 32.9 µM) | 6.25 µg/mL (≈ 16.4 µM) | 3.1 µg/mL (≈ 8.15 µM) | – | – |
| CCCC/C=C/[N+]([O-])=NC(C)C(C)=NNC(=O)CN1CCN(C(C)=O)CC1 (stereo not shown) [Example 53, 2-(4-acetylpiperazinyl-acetylhydrazono)-2-deoxo-KA-7367A] | – | – | – | – | 3.1 µg/mL (≈ 8.15 µM) | 12.5 µg/mL (≈ 32.9 µM) | 6.25 µg/mL (≈ 16.4 µM) | 3.1 µg/mL (≈ 8.15 µM) | – | – |
| CCCC/C=C/[N+]([O-])=NC(C)C(C)=NNC(=O)CN1CCN(C(=O)Cc2c(Cl)cccc2Cl)CC1 (stereo not shown) [Example 54, 2-[4-(2,6-dichlorophenylacetyl)-1-piperazinylacetylhydrazino]-2-deoxo-KA-7367A] | – | – | – | – | 3.1 µg/mL (≈ 5.9 µM) | 12.5 µg/mL (≈ 23.8 µM) | 6.25 µg/mL (≈ 11.9 µM) | 3.1 µg/mL (≈ 5.9 µM) | – | – |
| CCCC/C=C/[N+]([O-])=NC(C)C(C)=NNC(=O)Cc1c(F)cccc1F (stereo not shown) [Example 61, 2-[(2,6-difluorophenyl)acetylhydrazono]-2-deoxo-KA-7367A] | – | – | – | – | 0.8 µg/mL (≈ 2.18 µM) | 6.25 µg/mL (≈ 17.1 µM) | 3.1 µg/mL (≈ 8.46 µM) | 1.6 µg/mL (≈ 4.37 µM) | – | – |
| CCCC/C=C/[N+]([O-])=NC(C)C(C)=NNC(=O)Cc1c(OC)cccc1OC (stereo not shown) [Example 62, 2-[(2,6-dimethoxyphenyl)acetylhydrazono]-2-deoxo-KA-7367A] | – | – | – | – | 1.6 µg/mL (≈ 4.1 µM) | 12.5 µg/mL (≈ 32 µM) | 6.25 µg/mL (≈ 16 µM) | 3.1 µg/mL (≈ 7.94 µM) | – | – |
| CCCC/C=C/[N+]([O-])=NC(C)C(C)=NNC(=O)c1ccco1 (stereo not shown) [Example 67, 2-(2-furylcarbonylhydrazono)-2-deoxo-KA-7367A] | – | – | – | – | 1.6 µg/mL (≈ 5.22 µM) | 6.25 µg/mL (≈ 20.4 µM) | 3.1 µg/mL (≈ 10.1 µM) | 3.1 µg/mL (≈ 10.1 µM) | – | – |
| CCCC/C=C/[N+]([O-])=NC(C)C(C)=NNC(=O)c1ccncc1 (stereo not shown) [Example 70, 2-isonicotinoylhydrazono-2-deoxo-KA-7367A] | – | – | – | – | 25 µg/mL (≈ 78.8 µM) | 50 µg/mL (≈ 158 µM) | 25 µg/mL (≈ 78.8 µM) | 12.5 µg/mL (≈ 39.4 µM) | – | – |
| CCCC/C=C/[N+]([O-])=NC(C)C(C)=NNC(=O)c1cccnc1 (stereo not shown) [Example 71, 2-nicotinoylhydrazono-2-deoxo-KA-7367A] | – | – | – | – | 6.25 µg/mL (≈ 19.7 µM) | 12.5 µg/mL (≈ 39.4 µM) | 6.25 µg/mL (≈ 19.7 µM) | 6.25 µg/mL (≈ 19.7 µM) | – | – |
| CCCC/C=C/[N+]([O-])=NC(C)C(C)=NNC(=O)Cc1ccc(Cl)cc1 (stereo not shown) [Example 74, 2-(p-chlorophenylacetylhydrazono)-2-deoxo-KA-7367A] | – | – | – | – | 1.6 µg/mL (≈ 4.39 µM) | 6.25 µg/mL (≈ 17.1 µM) | 6.25 µg/mL (≈ 17.1 µM) | 3.1 µg/mL (≈ 8.5 µM) | – | – |
| CCCC/C=C/[N+]([O-])=NC(C)C(C)=NNC(=O)C(c1ccc(Cl)cc1)c1ccccc1Cl (stereo not shown) [Example 78, 2-(2,4'-dichlorodiphenylacetylhydrazono)-2-deoxo-KA-7367A] | – | – | – | – | 0.8 µg/mL (≈ 1.68 µM) | 6.25 µg/mL (≈ 13.1 µM) | 3.1 µg/mL (≈ 6.52 µM) | 3.1 µg/mL (≈ 6.52 µM) | – | – |
| CCCC/C=C/[N+]([O-])=NC(C)C(C)=O (stereo not shown) [KA-7367A] | – | – | – | – | – | – | – | – | – | almost decomposed |
